# Assay results taken from EP0526502B1, “PHENOLIC AMINE DEPIGMENTING AND ANTIMELANOMA AGENTS” (The Governors of the University of Alberta, priority 1990, dated 1991).
# Several values for one entry are separate records, joined by “and”; a condition that tells them apart may be missing. Equal values may be shown once.
# Experiments:
# Mushroom tyrosinase = Mushroom tyrosinase (Agaricus bisporus, UniProt C7FF04); assay: Enzyme kinetics with tyrosinase (substrate disappearance by HPLC, Lineweaver-Burk); assay type: biochemical; conditions: result in words
# Mushroom tyrosinase, sequence (C7FF04 1-392): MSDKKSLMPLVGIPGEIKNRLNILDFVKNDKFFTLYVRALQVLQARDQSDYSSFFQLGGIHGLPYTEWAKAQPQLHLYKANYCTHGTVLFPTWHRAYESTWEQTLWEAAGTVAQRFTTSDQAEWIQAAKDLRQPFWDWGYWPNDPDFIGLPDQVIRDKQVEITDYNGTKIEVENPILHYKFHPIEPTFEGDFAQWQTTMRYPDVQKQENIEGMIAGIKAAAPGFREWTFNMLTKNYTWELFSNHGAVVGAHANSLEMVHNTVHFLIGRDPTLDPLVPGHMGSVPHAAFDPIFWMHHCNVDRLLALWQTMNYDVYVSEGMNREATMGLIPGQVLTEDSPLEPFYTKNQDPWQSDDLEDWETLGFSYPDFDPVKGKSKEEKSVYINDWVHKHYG
# Method: (§1) Mushroom tyrosinase (400 units/mg) and plasma MAO (1000 units/gm) were obtained from Sigma Chemical Co. (St. Louis, MO, USA). A reaction mixture consisted of a substrate of 7 to 8 different concentrations (40 to 500 »M for mushroom tyrosinase and 20 to 200 »M for MAO) and of either mushroom tyrosinase (2.5 »g) or MAO (10 »g) in 1.0 mL of 0.05 M sodium phosphate buffer, pH 6.8 and 7.4 respectively. The reactions were carried out at 37°C in a shaking water bath, and stopped by taking 100 »L of the reaction mixture and adding it to 900 »L of 0.4 M HCLO₄. The disappearance of substrate was followed using HPLC (high pressure liquid chromatography) Km and Vmax values were calculated from the Lineweaver-Burk plots.
# plasma MAO = target: T1, plasma MAO (Bos taurus, UniProt Q29437); assay: Enzyme kinetics with monoamineoxidase (substrate disappearance by HPLC, Lineweaver-Burk); assay type: biochemical; conditions: result in words
# T1 construct: purchased Sigma Chemical Co. (St. Louis, MO, USA)
# T1 sequence (Q29437 17-762): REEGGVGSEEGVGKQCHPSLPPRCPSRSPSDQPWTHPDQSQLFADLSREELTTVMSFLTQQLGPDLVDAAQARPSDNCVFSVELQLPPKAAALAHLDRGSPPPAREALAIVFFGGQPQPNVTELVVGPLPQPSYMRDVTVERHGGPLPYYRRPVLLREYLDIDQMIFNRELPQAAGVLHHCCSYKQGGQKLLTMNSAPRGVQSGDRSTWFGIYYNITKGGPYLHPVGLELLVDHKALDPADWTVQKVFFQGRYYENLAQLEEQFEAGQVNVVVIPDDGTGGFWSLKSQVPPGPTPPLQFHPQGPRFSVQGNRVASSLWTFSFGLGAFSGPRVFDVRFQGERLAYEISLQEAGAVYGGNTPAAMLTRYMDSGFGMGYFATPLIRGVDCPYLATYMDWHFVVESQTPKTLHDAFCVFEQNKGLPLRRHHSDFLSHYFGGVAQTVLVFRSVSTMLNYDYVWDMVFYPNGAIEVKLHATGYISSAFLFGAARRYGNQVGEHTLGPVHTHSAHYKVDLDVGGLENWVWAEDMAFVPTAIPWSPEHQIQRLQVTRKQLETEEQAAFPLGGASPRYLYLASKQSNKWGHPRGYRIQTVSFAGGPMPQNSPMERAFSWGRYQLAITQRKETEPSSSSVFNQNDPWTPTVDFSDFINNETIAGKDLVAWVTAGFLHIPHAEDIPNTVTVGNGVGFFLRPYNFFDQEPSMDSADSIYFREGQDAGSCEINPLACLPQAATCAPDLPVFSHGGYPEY
# Method: as §1
# B16 melanoma = assay: In vivo growth inhibition of s.c. inoculated B16 melanoma; parameters: species or system C57BL/6J mice; conditions: 200 mg/Kg i.p. daily for nine days, day 12 or 13
# Method: The in vivo antimelanoma effect of the compounds were evaluated by percent growth inhibition of inoculated tumour (%g.i.). The percent g.i. was computed from the mean tumour volume at day 12 or 13 of the experiments; i.e., 100 x (1- treated group/control group). […] To further examine whether a minimal dose of N-Ac-4-S-CAP, 200 mg/Kg has an antimelanoma effect, three groups of mice were treated with N-Ac-4-S-CAP. […] One of the advantages of N-Ac-4-S-CAP over 4-S-CAP was that it had much higher LD⁵⁰ (as high as 1400 mg/Kg of body weight, and therefore a greater range of safety).
# B16F10 melanoma = assay: Melanoma-colony formation in the lungs; assay type: in vivo, mice; conditions: 300 mg/kg i.p. daily for 14 days from day five; lungs excised day 26
# Method: Murine B16F10 melanoma cell line with a strong metastatic property to form tumour colonies in the lungs was obtained from Dr. Longenecker, Department of Immunology, University of Alberta. Such cell line is well recognized and readily available as reported in Miura et al, supra. The cells were grown in T-75 flasks in dulbecco's MEM available from Gipco Lab Inc., Grand Island, New York, supplemented with 10% fetal calf serum, also obtained from Gipco, penicillin (100 »/ml) and streptomycin (100 »g/ml). The cells were incubated at 37°C in humidified atmosphere of 5% CO₂ in air. The cells were harvested by applying a thin layer of 0.25% trypsin solution in EDTA, washed and resuspended in cold N saline solution. Viable cells were identified by trypan blue dye exclusion and counted. The cell suspension was diluted to the desired concentration. Three groups of mice were studied using a control 4-S-CAP and N-Ac-4-S-CAP as the active agents in the treatment. On day zero, the mice were inoculated via the lateral tail vein with 5 x 10⁴ cells in 0.2 ml of N saline. The test drugs were dissolved in normal saline, sterilized by membrane filtration, and administered in a dose of 300 mg/Kg (4-S-CAP) or 900 mg/Kg (N-Ac-4-S-CAP); starting on day five, the control solution or drug was injected i.p. daily for 14 days. On day 26, the mice were killed by cervical dislocation, their lungs were removed, and the number of melanoma colonies was counted under a dissecting microscope. The results were expressed as percentage reduction in the number of colonies: [a - b/a] x 100, where a = colonies in control group and b = colonies in experimental group.
# follicular melanocytes = assay: Depigmentation of new hair after plucking (PTCA/eumelanin content of hair follicles); assay type: in vivo, C57BL/6J black mice; conditions: for PTCA Content / Depigmentation: hair harvested day 22
# Method: Breeding pairs of C57BL/6J black mice were purchased from Jackson Laboratory, Bar Harbor, Maine. Female progeny were used in this testing when approximately 8 weeks old and weighing 17 grams.
# Black hairs were plucked manually from the back of the mice to initiate new anagen growth and activate follicular melanocytes with increased tyrosinase activity. Thirty mice were randomized into 6 groups of 5 (1 control and 1 for each compound). Starting on day 1, daily for 14 days the agent was injected i.p. or was infiltrated s.c. in an area where hair follicles had been plucked; the dose was 300 mg/kg body weight.
# In the same 30 mice, hair follicles were harvested on day 22 (early telogen phase) and their eumelanin content analyzed. Details of the assay, including chemical degration of melanin and high-performance liquid chromatography (HPLC) were as described in Ito et al, "Quantitative Analysis of Eumelanin and Pheomelanin in Hair and Melanosomes" J. Invest. Dermatol 80:268-272, 1983. Briefly, a 10-mg hair sample is homogenized in water at a concentration of 10 mg/ml; the 200-»l homogenate is transferred to a screw-capped test tube, mixed with 1M H₂SO₄ (800 »L) and oxidized with 3% KMnO₄. The product, pyrrole-2,3,5-tricarboxylic acid (PTCA), is analyzed by HPLC with a UVL detector; samples are measured in duplicate. The eumelanin content is expressed as PTCA (ng/mg) against the PCTA content of BALB/c albino mice as control (≦ 10 ng/mg, the background value with our method, in which 1 ng corresponds roughly to a eumelanin content of 50 ng), and the degree of depigmentation is expressed as a percentage: (PTCA content of control sampleminusPTCA content of experimental sample)/(PCTA content of control sample) x 100 [formula] .
# melanocytes = assay: Light and electron microscopy of melanocytes in regrowing hair follicles; assay type: in vivo, mice; conditions: for electron microscopy of hair follicles: melanocytes and melanosomes: i.p. injection for 10 days
# Method: In six groups of 4 mice (1 control and 1 for each compound) were treated daily with the control or compound injected i.p. The compounds tested were 4-S-CAP, N-Ac-4-S-CAP and α-Me-4-S-CAP. Samples of skin and regrowing hair follicles were excised under brief general anaesthesia on day 10 (late anagen phase), fixed in Karnovsky's solution (2.5% glutaraldehyde and 2.5% paraformaldehyde in 0l1 M cacodylate buffer), and refixed in 1% osmium tetroxide in cadodylate buffer. Tissues were stained en bloc with 1.5% uranyl acetate in o.1 M veronal buffer for 30min, dehydrated in graded ethanol solutions, embedded in epoxy resin, and sectioned with a Potter-Blum ultramicrotome MT II. Sections 1.0 »m thick were stained with methylene blue for light microscopy, thin sections were stained with led citrate for electron microscopy.
# [1] = acute toxicity evaluated from 100 to 1600 mg/Kg; Miura et al; cited from earlier work
# [2] = Acute toxicity / lethal dose and maximum tolerable dose; conditions: mouse, in vivo
# Method: 3:1-85 1972. In accordance with this Protocol, ten to fifteen mice were used in each test group. They were weighed and randomized at day one after s.c. inoculation of B16 melanoma cells. From day five, the phenolic melanin precursors were administered i.p. daily for nine days. The test compounds were dissolved in normal saline, and sterilized by heating to 100°C for 2 minutes. […] They were administered i.p. with the following doses: 400 mg/Kg - 4-S-CAP; 200 to 300 mg/Kg - 4-S-CAP; and 200 to 1200 mg/Kg - N-Ac-4-S-CAP. A catalytic amount of L-dopa, 25 mg/Kg and antidecarboxylase, carbidopa, 400 mg/Kg, were also administered. Carbidopa was given one hour prior to L-dopa administration. DTIC (NSC 4538) was used as a control drug at a dose of 60 mg/Kg. Acute toxicity of 4-S-CP and 4-S-CAP was evaluated from 100 to 1600 mg/Kg.
# The B16 mouse melanoma was maintained by s.c. inoculation of tumour cells into the back of C57BL7J mice (5 to 6 weeks, female). […] Briefly, excised tumours were homogenized in normal saline. The homogenized tumour cells were then passed through a sterile 80 mesh stainless steel screen, washed with normal saline, centrifuged (500 g. for 10 minutes) and resuspended in normal saline. Suspensions of viable melanoma cells at the concentration of 1 x 10⁶ per 0.1 ml were inoculated s.c. into both the right and left inguinal areas of C57BL/6J mice (female, 5 to 6 weeks old, 18 to 20 gm).
# [3] = Route s.c., 300 mg/kg daily for 14 days
# [4] = Route s.c., 300 mg/kg daily for 14 days, 300 mg/kg
# [5] = Route: i.p., 300 mg/kg daily for 14 days
# [6] = Route: i.p., 300 mg/kg daily for 14 days, 300 mg/kg
SMILES,PTCA Content (follicular melanocytes; [3]),Depigmentation (follicular melanocytes; [4]),PTCA Content (follicular melanocytes; [5]),Depigmentation (follicular melanocytes; [6]),electron microscopy of hair follicles: melanocytes and melanosomes (melanocytes),lethal dose [1],Depigmentation (follicular melanocytes; [3]),Depigmentation (follicular melanocytes; [5]),also measured
"NCCSc1ccc(O)cc1 [4-S-CAP, 4-S-cysteaminylphenol, reference compound]",458.3 ± 107.6 ng/mg,47% and 46.9%,146.1 ± 72.4 ng/mg,87% and 86.6%,contained immature melanosomes at stages II and III,400 mg/kg,–,–,"tyrosinase substrate (Mushroom tyrosinase): a substrate for both plasma MAO and tyrosinase; substrate for plasma MAO (plasma MAO): a substrate for both plasma MAO and tyrosinase; %Gi (B16 melanoma; Experiment I): 54.0%; Tumour Volume (B16 melanoma; Experiment I): 239 ± 39 mm^3; %Gi (B16 melanoma; Experiment II): 25.1%; Tumour Volume (B16 melanoma; Experiment II): 405 ± 61 mm^3; No. of Colonies % control (B16F10 melanoma): 30% and 32.4%; No. of Colonies per pair of lungs (B16F10 melanoma): 28.0 ± 14.5; light microscopy of hair follicles: functioning melanocytes and melanin pigments (melanocytes; i.p. daily, day 10 (late anagen phase)): the hair follicles contained functioning melanocytes and melanin pigments transferred into keratonocytes, although they were much sparser than in the controls"
"N[C@@H](CSc1ccc(O)cc1)C(=O)O [4-S-CP, 4-S-cysteinylphenol]",–,–,–,–,–,600 mg/kg,–,–,–
"NCCCSc1ccc(O)cc1 [4-S-HomoCAP, 4-S-homo-CAP]",397.7 ± 279.3 ng/mg,–,956.7 ± 77.9 ng/mg,–,–,–,63.5%,12.1%,–
"CN(C)CCSc1ccc(O)cc1 [N,N-DiMe-4-S-CAP, N,N'-dimethyl-4-S-CAP]",1023.4 ± 110.1 ng/mg,–,1009.0 ± 193.5 ng/mg,–,–,–,6.1%,7.3%,"visible pigmentation of new hair (follicular melanocytes; i.p. or s.c. route, result in words): no visible changes in pigmentation in new follicles"
"CC(N)CSc1ccc(O)cc1 (stereo not drawn) [α-Me-4-S-CAP, α-methyl-4-S-CAP]",557.9 ± 47.2 ng/mg,58% and 57.9%,121.3 ± 81.9 ng/mg,89% and 88.9%,contained immature melanosomes at stages II and III,–,–,–,"per single dose toxicity levels [2]: ~500 mg/kg of body weight; side-effects (follicular melanocytes; 300 mg/kg daily for 14 days, i.p. or s.c., irritation seen after s.c. administration): some irritation of the skin in the plucked area"
